Experimental data published in patent publication US20250230193A1, “CYCLIC COMPOUND HAVING SELECTIVE KRAS INHIBITORY EFFECT ON HRAS AND NRAS” (CHUGAI SEIYAKU KABUSHIKI KAISHA, priority 2022, published 2025).
Where a SMILES comes first, the peptide text is derived from it. Bridges are numbered along the chain shown (N, C = ends). [ ]: non-standard residue; d: D form. hPhe(3-Cl-4-CF3) = N[C@@H](CCc1ccc(C(F)(F)F)c(Cl)c1)C(=O)O; NPrPhe(4-CF3) = CCCN[C@@H](Cc1ccc(C(F)(F)F)cc1)C(=O)O; NMeGly(cPent) = CN[C@H](C(=O)O)C1CCCC1; Pro(4,4-F2) = O=C(O)[C@@H]1CC(F)(F)CN1; NMeD = CN[C@@H](CC(=O)O)C(=O)O; NMeL = CN[C@@H](CC(C)C)C(=O)O; Ac4c = NC1(C(=O)O)CCC1; Sar = CNCC(=O)O

How the values were obtained:
[1] = target: GDP-bound NRAS wild-type protein (Homo sapiens, UniProt P01111); assay: Binding to NRAS by surface plasmon resonance (SPR), Single Cycle Kinetics
[2] = target: GDP-bound HRAS wild-type protein (Homo sapiens, UniProt P01112); assay: Binding to HRAS by surface plasmon resonance (SPR), Single Cycle Kinetics
[3] = SPR, GDP-bound wild-type proteins
[4] = KD ratio, GDP-bound NRAS wild-type vs GDP-bound KRAS wild-type, SPR
[5] = KD ratio, GDP-bound HRAS wild-type vs GDP-bound KRAS wild-type, SPR
[6] = SPR, GDP-bound NRAS wild-type vs GDP-bound KRAS wild-type
[7] = SPR, GDP-bound HRAS wild-type vs GDP-bound KRAS wild-type

Chain of GDP-bound HRAS wild-type protein (P01112 whole entry): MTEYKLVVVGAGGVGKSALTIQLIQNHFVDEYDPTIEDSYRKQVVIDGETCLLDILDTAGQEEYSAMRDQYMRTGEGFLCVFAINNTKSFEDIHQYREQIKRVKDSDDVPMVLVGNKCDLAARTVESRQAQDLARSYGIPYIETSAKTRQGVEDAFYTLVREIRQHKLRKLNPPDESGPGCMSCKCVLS
Chain of GDP-bound NRAS wild-type protein (P01111 whole entry): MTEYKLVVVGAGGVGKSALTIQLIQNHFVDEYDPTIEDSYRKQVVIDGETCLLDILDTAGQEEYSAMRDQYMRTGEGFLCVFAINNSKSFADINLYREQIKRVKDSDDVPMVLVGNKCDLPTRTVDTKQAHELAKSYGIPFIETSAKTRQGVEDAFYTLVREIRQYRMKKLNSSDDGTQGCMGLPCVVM

How did the “NRAS/KRAS (ratio of KD value with respect to GDP-bound NRAS wild-type protein to KD value with respect to KRAS)” value [1, 3] turn out when `CCC[C@H]1C(=O)N[C@@H](C2CCOCC2)C(=O)N(C)CC(=O)N(C)[C@H]2C/C=C\CCN(C2=O)[C@@H](Cc2ccc(C)cc2)C(=O)N(C)CC(=O)N[C@@H](CCc2ccc(C(F)(F)F)c(Cl)c2)C(=O)N2C[C@H](OCC)C[C@H]2C(=O)NC2(CC(C)(C)C2)C(=O)N(C)[C@@H](CC(C)(C)C)C(=O)N(C)[C@H](C(=O)N(C)C)CC(=O)N1C` [PP3026] was run?
Its value is “A (a compound having 10 or more and less than 20 is denoted as A)”.

And the “HRAS/KRAS (ratio of KD value with respect to GDP-bound HRAS wild-type protein to KD value with respect to KRAS)” value [2, 3]?
Its value is “A (a compound having 10 or more and less than 20 is denoted as A)”.

Which results are given for `CCO[C@@H]1C[C@H]2C(=O)NC3(CC(C)(C)C3)C(=O)N(C)[C@@H](C(CC)CC)C(=O)N(C)[C@H](C(=O)N3CCCCC3)CC(=O)N(C)[C@@H](COC)C(=O)N[C@@H]([C@@H](C)CC)C(=O)N(C)CC(=O)N(C)[C@H]3C/C=C\CCN(C3=O)[C@@H](Cc3ccc(C(F)(F)F)cc3)C(=O)N(C)CC(=O)N[C@@H](CCc3cc(F)c(C(F)(F)F)c(F)c3)C(=O)N2C1` [PP2606]?
NRAS/KRAS (ratio of KD value with respect to GDP-bound NRAS wild-type protein to KD value with respect to KRAS) ([1]; class symbols): AA (a compound having 20 or more is denoted as AA); HRAS/KRAS (ratio of KD value with respect to GDP-bound HRAS wild-type protein to KD value with respect to KRAS) ([2]; class symbols): AA (a compound having 20 or more is denoted as AA)

How did the “NRAS/KRAS (ratio of KD value for NRAS to KD value for KRAS)” value [1, 4] turn out when `CCO[C@@H]1C[C@H]2C(=O)NC3(CC(C)(C)C3)C(=O)N(C)[C@@H](C3CCCCC3)C(=O)N(C)[C@H](C(=O)N(C)C)CC(=O)N(C)[C@@H](CC)C(=O)N[C@@H]([C@@H](C)CC)C(=O)N(C)CC(=O)N(C)[C@H]3C/C=C\CCN(C3=O)[C@@H](Cc3ccc(C(F)(F)F)cc3)C(=O)N(C)CC(=O)N[C@@H](CCc3cc(F)c(C(F)(F)F)c(F)c3)C(=O)N2C1` [PP1942] was run?
The value was “AA (a compound having 20 or more is denoted as AA)”.

And the “HRAS/KRAS (ratio of KD value for HRAS to KD value for KRAS)” value [2, 5]?
The value was “A (a compound having 10 or more and less than 20 is denoted as A)”.

What does the source list for `CC[C@H](C)[C@@H]1NC(=O)[C@H](COC)N(C)C(=O)C[C@@H](C(=O)N(C)C)N(C)C(=O)[C@H](C2CCCC2)N(C)C(=O)C2(CC(C)(C)C2)NC(=O)[C@@H]2C[C@@H](OC(C)C)CN2C(=O)[C@H](CCc2ccc(Cl)c(Cl)c2)NC(=O)CN(C)C(=O)[C@H](CC2CCCCC2)N2CC/C=C\C[C@@H](C2=O)N(C)C(=O)CN(C2CC2)C1=O` [PP2513]?
NRAS/KRAS (ratio of KD value with respect to NRAS to KD value with respect to KRAS) [1, 6]: A (a compound having 10 or more and less than 20 is denoted as A); HRAS/KRAS (ratio of KD value with respect to HRAS to KD value with respect to KRAS) [2, 7]: A (a compound having 10 or more and less than 20 is denoted as A)

`CCO[C@@H]1C[C@H]2C(=O)NC3(CCC3)C(=O)N(C)[C@@H](C3CCCC3)C(=O)N(C)[C@H](C(=O)N(C)C)CC(=O)N(C)[C@@H](Cc3ccccc3C#N)C(=O)N[C@@H]([C@@H](C)CC)C(=O)N(C)CC(=O)N(C)[C@H]3CCCCCN(C3=O)[C@@H](Cc3ccc(F)cc3)C(=O)N(C)CC(=O)N[C@@H](CCc3cc(F)c(C(F)(F)F)c(F)c3)C(=O)N2C1` [PP1155] was tested. Which “NRAS/KRAS (ratio of KD value with respect to NRAS to KD value with respect to KRAS)” value [1, 4] did it give?
Its value is “B (a compound having 3 or more and less than 10 is denoted as B)”.

What about the “HRAS/KRAS (ratio of KD value with respect to HRAS to KD value with respect to KRAS)” value [2, 5] of the same molecule?
The value was “B (a compound having 3 or more and less than 10 is denoted as B)”.

`CCC[C@H]1C(=O)N[C@@H]([C@@H](C)CC)C(=O)N(C)CC(=O)N(C)[C@H]2C/C=C\CCN(C2=O)[C@@H](Cc2ccc(C)cc2)C(=O)N(C)CC(=O)N[C@@H](CCc2ccc(Cl)c(C(F)(F)F)c2)C(=O)N2C[C@H](OCC)C[C@H]2C(=O)NC2(CC(C)(C)C2)C(=O)N(C)[C@@H](C2CCCC2)C(=O)N(C)[C@H](C(=O)N(C)C)CC(=O)N1C` [PP2786] was tested. Which “NRAS/KRAS (ratio of KD value with respect to GDP-bound NRAS wild-type protein to KD value with respect to KRAS)” value ([1]; class symbols) did it give?
Its value is “A (a compound having 10 or more and less than 20 is denoted as A)”.

And the “HRAS/KRAS (ratio of KD value with respect to GDP-bound HRAS wild-type protein to KD value with respect to KRAS)” value ([2]; class symbols)?
Its value is “A (a compound having 10 or more and less than 20 is denoted as A)”.

What does the source list for `CCCN1C(=O)CN(C)C(=O)CN(C)C(=O)[C@H]([C@@H](C)CC)NC(=O)[C@H](CC(C)C)N(C)C(=O)C[C@@H](C(=O)N(C)C)N(C)C(=O)[C@H](C2CCCC2)N(C)C(=O)C2(CCC2)NC(=O)[C@@H]2CC(F)(F)CN2C(=O)[C@H](CCc2ccc(C(F)(F)F)c(Cl)c2)NC(=O)CN(C)C(=O)[C@@H]1Cc1ccc(C(F)(F)F)cc1` [PP0414] ([NMeL]I[Sar][Sar][NPrPhe(4-CF3)][Sar][hPhe(3-Cl-4-CF3)][Pro(4,4-F2)][Ac4c][NMeGly(cPent)][NMeD]-NMe2; lactam N-11)?
NRAS/KRAS (ratio of KD value with respect to GDP-bound NRAS wild-type protein to KD value with respect to KRAS) ([1]; SPR): B (a compound having 3 or more and less than 10 is denoted as B); HRAS/KRAS (ratio of KD value with respect to GDP-bound HRAS wild-type protein to KD value with respect to KRAS) ([2]; SPR): C (A compound having a KD ratio of 0.1 or more and less than 3 is denoted as C)

For `CCO[C@@H]1C[C@H]2C(=O)NC3(CCC3)C(=O)N(C)[C@@H](C3CCCC3)C(=O)N(CC)[C@H](C(=O)N3CCOCC3)CC(=O)N(C)[C@@H](CC)C(=O)N[C@@H]([C@@H](C)CC)C(=O)N(C)CC(=O)N(C)[C@H]3CCCCCN(C3=O)[C@@H](Cc3ccc(C(F)(F)F)cc3)C(=O)N(C)CC(=O)N[C@@H](CCc3cc(F)c(C(F)(F)F)c(F)c3)C(=O)N2C1` [PP0944], which “NRAS/KRAS (ratio of KD value with respect to NRAS to KD value with respect to KRAS)” value [1, 4] is on record?
Its value is “A (a compound having 10 or more and less than 20 is denoted as A)”.

What about the “HRAS/KRAS (ratio of KD value with respect to HRAS to KD value with respect to KRAS)” value [2, 5] of the same molecule?
Its value is “A (a compound having 10 or more and less than 20 is denoted as A)”.

How did the “NRAS/KRAS (ratio of KD value with respect to NRAS to KD value with respect to KRAS)” value [1, 4] turn out when `CCO[C@H]1CCN2C(=O)[C@H](CCc3cc(F)c(C(F)(F)F)c(F)c3)NC(=O)CN(C)C(=O)[C@H](Cc3ccc(C(F)(F)F)cc3)N3CCCCC[C@@H](C3=O)N(C)C(=O)CN(C)C(=O)[C@H]([C@@H](C)CC)NC(=O)[C@H](CC(C)C)N(C)C(=O)C[C@@H](C(=O)N3CCOCC3)N(C)C(=O)[C@H](C3CCCC3)N(C)C(=O)C3(CCC3)NC(=O)[C@H]12` [PP1068] was run?
Its value is “A (a compound having 10 or more and less than 20 is denoted as A)”.

What about the “HRAS/KRAS (ratio of KD value with respect to HRAS to KD value with respect to KRAS)” value [2, 5] of the same molecule?
The value was “B (a compound having 3 or more and less than 10 is denoted as B)”.

What does the source list for `CCC[C@H]1C(=O)N[C@@H]([C@@H](C)CC)C(=O)N(C)CC(=O)N(C)[C@H]2C/C=C\CCN(C2=O)[C@@H](Cc2ccc(C(F)(F)F)cc2)C(=O)N(C)CC(=O)N[C@@H](CCc2ccc(C(F)(F)F)c(OC)c2)C(=O)N2CCCC[C@H]2C(=O)NC2(CC(C)(C)C2)C(=O)N(C)[C@@H](C(CC)CC)C(=O)N(C)[C@H](C(=O)N(C)C)CC(=O)N1C` [PP2934]?
NRAS/KRAS (ratio of KD value with respect to GDP-bound NRAS wild-type protein to KD value with respect to KRAS) ([1]; class symbols): AA (a compound having 20 or more is denoted as AA); HRAS/KRAS (ratio of KD value with respect to GDP-bound HRAS wild-type protein to KD value with respect to KRAS) ([2]; class symbols): A (a compound having 10 or more and less than 20 is denoted as A)

With `CCCOC[C@H]1C(=O)N[C@@H]([C@@H](C)CC)C(=O)N(C)CC(=O)N(C)[C@H]2C/C=C\CCN(C2=O)[C@@H](Cc2ccc(C)cc2)C(=O)N(C)CC(=O)N[C@@H](CCc2ccc(C(F)(F)F)c(Cl)c2)C(=O)N2C[C@H](OCC)C[C@H]2C(=O)NC2(CC(C)(C)C2)C(=O)N(C)[C@@H](C2CCCC2)C(=O)N(C)[C@H](C(=O)N(C)CC)CC(=O)N1C` [PP2469] as the molecule, how does the “NRAS/KRAS (ratio of KD value with respect to NRAS to KD value with respect to KRAS)” value [1, 6] read?
The value was “A (a compound having 10 or more and less than 20 is denoted as A)”.

And the “HRAS/KRAS (ratio of KD value with respect to HRAS to KD value with respect to KRAS)” value [2, 7]?
Its value is “B (a compound having 3 or more and less than 10 is denoted as B)”.
